Data as given in EP0717990B1, “COMPOSITION FOR REMEDYING DRUG DEPENDENCE” (TAISHO PHARMACEUTICAL CO. LTD, priority 1993, dated 1995).
Where two headings read alike, the source gives them in different places.

What was measured:
alcohol dependence = experiment: Effect on alcohol dependence (conditioned place preference in shuttle box); assay type: in vivo, male Wistar strain rats; conditions: rats; for Desire-arising effect for ethanol treatment compartment: 30 minutes before ethanol administration
Description: [Investigation on an effect on alcohol dependence]
A test was carried out according to the method described in Pharmacology Biochemistry and Behavior, Vol. 35, pp. 485-487 (1990).
Compound B used according to the present invention was administered in a dose of 0.1 or 1 mg/kg 30 minutes before ethanol administration in each run.
An experimental apparatus was a 2-compartments box (width 30 cm, length 60 cm, height 30 cm) made of acrylic plates and divided equally into a white compartment and a black compartment by a guillotine door provided in the middle of the box. In addition, the floor of the box had been made non-slip in the white compartment and slippery in the black compartment, that is, the box used was a so-called shuttle box capable of giving both a visual stimulus of black and white and a tactile stimulus of the floor.
Conditioning was carried out once a day for 6 days. Each rat was treated with ethanol (0.5 or 1 g/kg) or physiological saline and then confined in one of the compartment for 50 minutes. The next day, the rat was subjected to a treatment different from that carried out on the previous day, and then confined in the other compartment for 50 minutes. The above procedure was repeated three times. For minimizing the influence of the difference of the conditioning procedure on the result, a counter balance method was adopted, that is, there were employed the following 4 combinations of the ethanol treatment or the physiological saline treatment and the white or black compartment: • 1) ethanol and white; physiological saline and black on the next day, • 2) physiological saline and black; ethanol and white on the next day, • 3) ethanol and black; physiological saline and white on the next day, and • 4) physiological saline and white; ethanol and black on the next day.
As a control group, a group which had been given physiological saline instead of being subjected to ethanol treatment was conditioned in the same manner as above.
After 6 days of the conditioning procedure, each run of measuring the length of stay in each compartment was carried out for 15 minutes. Neither ethanol nor physiological saline was administered to the conditioned rats. In the apparatus, a platform (width 2 cm, length 5 cm) made of a wire net and having a gray color intermediate between white and black was set in the middle of the box, i.e., the compartmenting portion. The length of stay was measured as follows: each rat was placed on the platform, and then a time for which the forefeet and head of the rat were in the black or white compartment was measured as a length of stay in the black or white compartment, respectively, for 15 minutes after the rat got down the platform to become able to come from or go to any of the white and black compartments freely. The desire-arising effect for the drug treatment compartment, i.e., the place preference was determined in terms of a value obtained by subtracting the length of stay in the physiological saline treatment compartment from the length of stay in the drug treatment compartment.

[1] = Single-administration toxicity test; parameters: species or system Wistar strain rats; conditions: Wistar, rat, in vivo, oral, observation 14 days, read-out: Approximate LD50
Description: [Single-administration toxicity test]
Kind of animal: Wistar strain rats, male and female, 6 to 7 weeks old (at the time of administration). Number of animals: 5 males and 5 females in each group. Administration route: Oral. Number of groups: male 6 groups, female 6 groups. Administered drug: N,N-di-n-propyl-2-[4-methoxy-3-(2-phenylethoxy)phenyl]ethylamine hydrochloride. Dosage form: a solution in distilled water. Dose: male 312 to 891 mg/kg, female 240 to 685 mg/kg (common ratio […]). Observation time: 14 days.

[2] = tested on: phencyclidine (PCP)-induced abnormal behavior; experiment: Antagonism against phencyclidine (PCP)-induced abnormal behavior (head weaving); conditions: Rattus norvegicus, read-out: ED50 value (mg/kg)
[3] = tested on: cocaine-dependent monkeys; experiment: Effect on cocaine-dependent monkeys (drug self-administration); assay type: in vivo, male cynomolgus monkeys; conditions: cocaine intake per day, cocaine-dependent cynomolgus monkeys
Description: [Investigation on an effect on cocaine-dependent monkeys]
A test was carried out according to the method described in Drug and Alcohol Dependence, 1989, Vol. 24, pp. 135-142.
A catheter was allowed to indwell chronically in the vein of each monkey and the investigation was carried out by a drug self-administration experimental method in which a definite amount of a liquid drug was automatically poured according to a reinforcement schedule when the animal pushed a lever. When the cocaine intake per day was 20 mg/kg/day or more for 10 consecutive weeks or more, it was judged that the dependence was caused.

D1 = D1 (Homo sapiens, UniProt P21728); conditions: result in words; cited from earlier work
Chain of D1 (P21728 whole entry): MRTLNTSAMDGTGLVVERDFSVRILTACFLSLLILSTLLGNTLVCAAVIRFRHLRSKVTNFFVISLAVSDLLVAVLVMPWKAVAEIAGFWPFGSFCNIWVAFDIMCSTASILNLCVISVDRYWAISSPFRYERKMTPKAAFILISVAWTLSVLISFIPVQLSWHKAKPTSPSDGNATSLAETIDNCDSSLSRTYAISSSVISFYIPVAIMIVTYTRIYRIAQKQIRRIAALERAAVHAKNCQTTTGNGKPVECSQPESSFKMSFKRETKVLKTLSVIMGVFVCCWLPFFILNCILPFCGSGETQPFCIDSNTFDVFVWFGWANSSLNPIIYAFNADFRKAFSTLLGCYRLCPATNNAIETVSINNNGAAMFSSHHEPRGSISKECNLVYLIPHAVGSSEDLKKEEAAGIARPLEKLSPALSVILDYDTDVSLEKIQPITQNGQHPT

sigma receptor = conditions: result in words; cited from earlier work
5-HT1A = molecular target: T1, 5-HT1A (Homo sapiens, UniProt P08908); conditions: result in words; cited from earlier work
T1 sequence (P08908 1-422): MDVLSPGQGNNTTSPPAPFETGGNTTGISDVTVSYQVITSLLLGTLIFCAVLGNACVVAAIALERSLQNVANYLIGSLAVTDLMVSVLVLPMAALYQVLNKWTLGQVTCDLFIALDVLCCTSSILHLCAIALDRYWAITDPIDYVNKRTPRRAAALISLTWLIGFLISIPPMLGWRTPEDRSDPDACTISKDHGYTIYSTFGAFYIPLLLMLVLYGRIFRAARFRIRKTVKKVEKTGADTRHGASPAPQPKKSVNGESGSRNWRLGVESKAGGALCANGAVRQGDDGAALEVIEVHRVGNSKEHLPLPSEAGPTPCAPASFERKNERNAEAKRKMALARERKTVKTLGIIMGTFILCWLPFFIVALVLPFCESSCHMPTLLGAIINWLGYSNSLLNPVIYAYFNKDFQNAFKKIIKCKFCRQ

5-HT2 = 5-HT2 (Homo sapiens, UniProt P28223); conditions: result in words; cited from earlier work
Chain of 5-HT2 (P28223 whole entry): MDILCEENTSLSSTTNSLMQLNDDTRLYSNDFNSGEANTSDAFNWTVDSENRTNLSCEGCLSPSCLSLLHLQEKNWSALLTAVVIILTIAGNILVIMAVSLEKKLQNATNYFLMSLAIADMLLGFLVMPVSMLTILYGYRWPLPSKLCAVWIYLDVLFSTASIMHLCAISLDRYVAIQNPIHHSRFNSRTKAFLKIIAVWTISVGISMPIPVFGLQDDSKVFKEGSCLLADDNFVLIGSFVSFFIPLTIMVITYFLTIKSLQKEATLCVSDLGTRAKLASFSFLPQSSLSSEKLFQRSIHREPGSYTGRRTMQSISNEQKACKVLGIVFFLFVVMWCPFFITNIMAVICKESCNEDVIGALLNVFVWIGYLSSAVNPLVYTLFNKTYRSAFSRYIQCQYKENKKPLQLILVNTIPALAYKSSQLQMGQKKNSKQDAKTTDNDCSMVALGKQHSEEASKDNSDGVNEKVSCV

D2 = D2 (Homo sapiens, UniProt P14416); conditions: result in words; cited from earlier work
Chain of D2 (P14416 whole entry): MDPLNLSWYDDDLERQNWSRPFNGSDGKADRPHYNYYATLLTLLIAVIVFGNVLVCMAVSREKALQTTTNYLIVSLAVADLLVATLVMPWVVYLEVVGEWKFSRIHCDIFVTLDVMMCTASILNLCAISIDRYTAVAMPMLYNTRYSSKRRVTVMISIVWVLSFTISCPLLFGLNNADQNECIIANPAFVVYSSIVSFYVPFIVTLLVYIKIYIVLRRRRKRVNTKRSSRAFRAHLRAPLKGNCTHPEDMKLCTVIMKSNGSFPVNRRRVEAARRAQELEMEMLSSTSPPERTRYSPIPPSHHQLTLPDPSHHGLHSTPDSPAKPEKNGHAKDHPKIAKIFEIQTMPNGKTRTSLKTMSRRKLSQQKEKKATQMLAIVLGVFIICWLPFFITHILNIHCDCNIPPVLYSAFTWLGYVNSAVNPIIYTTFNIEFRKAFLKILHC

[4] = orally administered in a dose of 0.1 mg/kg

CCCN(CCC)CCc1ccc(OC)c(OCCc2ccccc2)c1.Cl [Compound B, N,N-di-n-propyl-2-[4-methoxy-3-(2-phenylethoxy)phenyl]ethylamine hydrochloride]
ethanol dependence (alcohol dependence; 0.1 or 1 mg/kg, result in words): suppressed the ethanol dependence in a dose-dependent manner
Desire-arising effect for ethanol treatment compartment (alcohol dependence; Ethanol (0.5 g/kg) + B 0.1 mg/kg): 104 ± 41
Desire-arising effect for ethanol treatment compartment (alcohol dependence; Ethanol (0.5 g/kg) + B 1 mg/kg): 11 ± 32
Desire-arising effect for ethanol treatment compartment (alcohol dependence; Ethanol (1 g/kg) + B 0.1 mg/kg): 101 ± 47
Desire-arising effect for ethanol treatment compartment (alcohol dependence; Ethanol (1 g/kg) + B 1 mg/kg): 9 ± 12
LD50 at 14 days ([1]; female rats): 312 to 406 mg/kg
LD50 at 14 days ([1]; male rats): 685 to 891 mg/kg
ED50 [2]: 0.12 mg/kg
Percentage of decrease in cocaine intake (%) [3, 4]: 89.3%

CCCN(CCC)CCc1cccc(OC)c1OCCc1ccccc1.Cl [D, N,N-di-n-propyl-2-[3-methoxy-2-(2-phenylethoxy)phenyl]ethylamine hydrochloride]
ED50 [2]: 0.27 mg/kg
Percentage of decrease in cocaine intake (%) [3, 4]: 49.3%

CCCN(CCC)CCc1ccc(OC)c(OCCc2ccccc2)c1 [N,N-dipropyl-2-[4-methoxy-3-(2-phenylethoxy)phenyl]ethylamine]
affinity for D1 (D1): low affinity
affinity to sigma receptor (sigma receptor): high affinity
affinity for 5-HT1A (5-HT1A): low affinity
affinity for 5-HT2 (5-HT2): low affinity
affinity for D2 (D2): low affinity

CCCN(CCC)CCc1cc(Cl)ccc1OCCc1ccccc1.O=C(O)C(=O)O [A, N,N-di-n-propyl-2-[5-chloro-2-(2-phenylethoxy)phenyl]ethylamine oxalate]
ED50 [2]: 0.3 mg/kg
Percentage of decrease in cocaine intake (%) [3, 4]: 62.6%

CCCN(CCC)CCCc1ccc(OC)c(OCCc2ccccc2)c1.Cl [C, N,N-di-n-propyl-3-[4-methoxy-3-(2-phenylethoxy)phenyl]propylamine hydrochloride]
ED50 [2]: 0.22 mg/kg
Percentage of decrease in cocaine intake (%) [3, 4]: 77.1%

C[C@@H]1CN(CCCn2c3ccccc3c3ccccc32)C[C@H](C)N1 [Rimcazole, reference compound]
ED50 [2]: 28 mg/kg
Percentage of decrease in cocaine intake (%) ([3]; orally administered in a dose of 10 mg/kg): 28.0%
